Laboratory results as given in ChEMBL document CHEMBL5325413, “Optimization of BAX trigger site activator BTSA1 with improved antitumor potency and in vitro ADMET properties” (Eur J Med Chem, 2023).
pIC50: −log10 of the molar value. Calls of active or inactive are those of the source. No cut-off for these calls is given here.

Key:
[1] = test system: A549; assay: Inhibition of colony formation in human A549 cells at 3 uM incubated for 2 weeks by crystal violet staining based analysis relative to control; type: functional; conditions: A549, 336 h
[2] = test system: A549; assay: Induction of apoptosis in human A549 cells assessed as cell rounding at 2.5 to 10 uM incubated for 48 hrs by Hoechst 33342 staining based fluorescence microscopic analysis; type: functional; conditions: dose 2.5-10 µM
[3] = Stability in rat plasma assessed as compound remaining measured immediately; type: ADME, cell-free; conditions: read-out: Stability
[4] = Stability in rat plasma assessed as half life; type: ADME, cell-free
[5] = target: Apoptosis regulator BAX (Homo sapiens) (UniProt Q07812); assay: Activation of BAX in human A549 cells assessed as increase in cytochrome-c release incubated for 24 hrs by Western blot analysis; type: cell-based; conditions: filed as activator, dose 5-40 µM
Apoptosis regulator BAX (Homo sapiens), sequence (Q07812 whole entry): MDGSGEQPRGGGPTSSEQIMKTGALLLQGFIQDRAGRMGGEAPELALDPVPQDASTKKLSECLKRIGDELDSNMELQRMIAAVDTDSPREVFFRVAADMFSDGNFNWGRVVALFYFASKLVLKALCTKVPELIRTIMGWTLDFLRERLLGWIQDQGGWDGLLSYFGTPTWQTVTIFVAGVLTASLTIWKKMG

[6] = human, 1 h, 100 µM
[7] = target: Cytochrome P450 2C9 (Homo sapiens, UniProt P11712); assay: Inhibition of CYP2C9 in human liver microsomes using diclofenac as substrate prewarmed for 10 mins followed by NADPH addition and measured after 10 mins by LC-MS/MS analysis
Cytochrome P450 2C9, sequence (P11712 whole entry): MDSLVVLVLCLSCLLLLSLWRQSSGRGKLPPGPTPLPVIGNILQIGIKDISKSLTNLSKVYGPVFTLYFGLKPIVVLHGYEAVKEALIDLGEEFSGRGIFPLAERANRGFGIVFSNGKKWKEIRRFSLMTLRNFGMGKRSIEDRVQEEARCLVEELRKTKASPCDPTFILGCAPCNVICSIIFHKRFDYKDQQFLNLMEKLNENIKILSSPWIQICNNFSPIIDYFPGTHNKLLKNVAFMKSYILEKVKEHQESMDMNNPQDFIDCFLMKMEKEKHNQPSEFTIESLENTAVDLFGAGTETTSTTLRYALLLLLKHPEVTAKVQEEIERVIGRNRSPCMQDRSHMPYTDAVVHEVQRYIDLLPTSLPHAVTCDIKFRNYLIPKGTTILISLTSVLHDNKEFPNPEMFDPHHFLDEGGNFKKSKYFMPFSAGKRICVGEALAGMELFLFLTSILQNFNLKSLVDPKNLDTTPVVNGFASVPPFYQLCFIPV

[8] = test system: A549; assay: Inhibition of colony formation in human A549 cells incubated for 2 weeks by crystal violet staining based analysis; type: functional, cell-based; conditions: dose 1-3 µM
[9] = mouse, microsomes, 1 h, 100 µM
[10] = test system: HCT-116; assay: Antiproliferative activity against human HCT-116 cells assessed as cell growth inhibition incubated for 72 hrs by MTT assay; type: functional
[11] = test system: A549; assay: Induction of cell cycle arrest in human A549 cells assessed as accumulation of cells at S phase at 2.5 uM incubated for 48 hrs by RNase/PI staining based flow cytometry analysis (reference value: 26.01%); type: functional
[12] = target: Cytochrome P450 3A4 (Homo sapiens, UniProt P08684); assay: Inhibition of CYP3A4 in human liver microsomes using midazolam as substrate prewarmed for 10 mins followed by NADPH addition and measured after 10 mins by LC-MS/MS analysis
Cytochrome P450 3A4, sequence (P08684 whole entry): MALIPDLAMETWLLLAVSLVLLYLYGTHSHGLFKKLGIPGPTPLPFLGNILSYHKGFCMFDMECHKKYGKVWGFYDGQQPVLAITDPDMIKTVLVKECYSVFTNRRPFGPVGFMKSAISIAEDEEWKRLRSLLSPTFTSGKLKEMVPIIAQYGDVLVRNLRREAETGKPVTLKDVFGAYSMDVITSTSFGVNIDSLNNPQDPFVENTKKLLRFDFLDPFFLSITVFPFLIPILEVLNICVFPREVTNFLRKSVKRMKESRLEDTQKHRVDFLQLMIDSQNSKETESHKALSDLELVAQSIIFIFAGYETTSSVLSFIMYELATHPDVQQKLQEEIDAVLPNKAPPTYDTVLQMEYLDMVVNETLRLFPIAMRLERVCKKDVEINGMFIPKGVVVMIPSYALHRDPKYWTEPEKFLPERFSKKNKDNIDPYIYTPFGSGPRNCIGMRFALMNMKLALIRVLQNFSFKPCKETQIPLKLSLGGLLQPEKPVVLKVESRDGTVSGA

[13] = test system: A549; assay: Induction of apoptosis in human A549 cells assessed as dead cells at 5 uM incubated for 48 hrs by Annexin V-FITC/PI staining based flow cytometry analysis (reference value: 0.535%); type: functional
[14] = test system: A549; assay: Induction of apoptosis in human A549 cells assessed as total apoptotic cells at 10 uM incubated for 48 hrs by Annexin V-FITC/PI staining based flow cytometry analysis (reference value: 4.26%); type: functional
[15] = test system: A549; assay: Induction of cell cycle arrest in human A549 cells assessed as accumulation of cells at G2/M phase at 2.5 uM incubated for 48 hrs by RNase/PI staining based flow cytometry analysis (reference value: 18.97%); type: functional
[16] = Drug recovery in human liver microsomes at 100 uM incubated for 60 mins in absence of NADPH by LC-MS/MS analysis; type: ADME, Microsome; conditions: read-out: Drug recovery
[17] = in vitro; conditions: human, liver microsomes
[18] = test system: A549; assay: Induction of apoptosis in human A549 cells assessed as late apoptotic cells at 5 uM incubated for 48 hrs by Annexin V-FITC/PI staining based flow cytometry analysis (reference value: 2.52%); type: functional
[19] = target: Cytochrome P450 2D6 (Homo sapiens, UniProt P10635); assay: Inhibition of CYP2D6 in human liver microsomes using dextromethorphan as substrate prewarmed for 10 mins followed by NADPH addition and measured after 10 mins by LC-MS/MS analysis
Cytochrome P450 2D6, sequence (P10635 whole entry): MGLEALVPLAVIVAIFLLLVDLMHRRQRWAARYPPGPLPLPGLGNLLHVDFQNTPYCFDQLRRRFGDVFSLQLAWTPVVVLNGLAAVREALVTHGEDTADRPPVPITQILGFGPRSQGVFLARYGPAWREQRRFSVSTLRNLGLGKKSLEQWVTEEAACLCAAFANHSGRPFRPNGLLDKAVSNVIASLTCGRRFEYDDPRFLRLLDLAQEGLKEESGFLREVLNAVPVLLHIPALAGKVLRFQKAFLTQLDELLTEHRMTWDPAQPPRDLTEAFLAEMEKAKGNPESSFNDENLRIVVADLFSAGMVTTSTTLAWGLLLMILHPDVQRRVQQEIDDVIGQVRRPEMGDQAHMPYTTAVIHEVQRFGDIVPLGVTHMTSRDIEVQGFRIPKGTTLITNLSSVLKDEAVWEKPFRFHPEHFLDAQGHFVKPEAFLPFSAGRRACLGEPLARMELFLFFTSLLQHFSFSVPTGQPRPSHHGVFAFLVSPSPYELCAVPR

[20] = Metabolic stability in mouse liver microsomes assessed as parent compound remaining at 100 uM incubated for 60 mins in absence of NADPH by LC-MS/MS analysis
[21] = target: Cytochrome P450 2C19 (Homo sapiens, UniProt P33261); assay: Inhibition of CYP2C19 in human liver microsomes using S-mephenytoin as substrate prewarmed for 10 mins followed by NADPH addition and measured after 10 mins by LC-MS/MS analysis
Cytochrome P450 2C19, sequence (P33261 whole entry): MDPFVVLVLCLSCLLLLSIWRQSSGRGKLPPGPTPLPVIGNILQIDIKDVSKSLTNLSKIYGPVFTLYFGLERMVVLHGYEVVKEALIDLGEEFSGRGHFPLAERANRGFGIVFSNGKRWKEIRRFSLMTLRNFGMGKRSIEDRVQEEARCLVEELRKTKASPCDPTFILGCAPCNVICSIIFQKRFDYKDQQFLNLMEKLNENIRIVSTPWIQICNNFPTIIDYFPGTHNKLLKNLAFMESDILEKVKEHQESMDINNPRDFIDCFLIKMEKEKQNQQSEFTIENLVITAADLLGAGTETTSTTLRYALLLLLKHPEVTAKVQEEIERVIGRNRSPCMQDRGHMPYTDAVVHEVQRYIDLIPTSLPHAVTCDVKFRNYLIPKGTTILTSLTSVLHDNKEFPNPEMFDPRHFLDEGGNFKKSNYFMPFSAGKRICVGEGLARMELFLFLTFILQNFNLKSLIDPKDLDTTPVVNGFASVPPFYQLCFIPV

[22] = test system: NCI-H1581; assay: Antiproliferative activity against human NCI-H1581 cells expressing BAX assessed as cell growth inhibition incubated for 72 hrs by MTT assay; type: functional
[23] = test system: A549; assay: Induction of apoptosis in human A549 cells assessed as early apoptotic cells at 10 uM incubated for 48 hrs by Annexin V-FITC/PI staining based flow cytometry analysis (reference value: 1.09 %); type: functional
[24] = test system: A549; assay: Induction of apoptosis in human A549 cells assessed as increase in cleaved PARP level incubated for 48 hrs by Western blot analysis; type: functional, cell-based; conditions: dose 5-40 µM
[25] = test system: A549; assay: Induction of apoptosis in human A549 cells assessed as dead cells at 10 uM incubated for 48 hrs by Annexin V-FITC/PI staining based flow cytometry analysis (reference value: 0.739%); type: functional
[26] = test system: PC-3; assay: Antiproliferative activity against human PC-3 cells assessed as cell growth inhibition incubated for 72 hrs by MTT assay; type: functional
[27] = test system: A549; assay: Induction of apoptosis in human A549 cells assessed as formation of apoptotic bodies at 2.5 to 10 uM incubated for 48 hrs by Hoechst 33342 staining based fluorescence microscopic analysis; type: functional, cell-based; conditions: dose 2.5-10 µM
[28] = test system: A549; assay: Induction of apoptosis in human A549 cells assessed as late apoptotic cells at 10 uM incubated for 48 hrs by Annexin V-FITC/PI staining based flow cytometry analysis (reference value: 2.15%); type: functional
[29] = test system: A549; assay: Antiproliferative activity against human A549 cells assessed as reduction in cell viability at 1 to 5 uM by MTT assay; type: functional, cell-based; conditions: dose 1-5 µM, time 24-72 hrs, TDE = time-dependent effect
[30] = test system: A549; assay: Induction of apoptosis in human A549 cells assessed as total apoptotic cells at 10 uM incubated for 48 hrs by Annexin V-FITC/PI staining based flow cytometry analysis (reference value: 2.86%); type: functional

CN(C)C1CCN(C(=O)c2ccc(N3N=C(c4ccccc4)/C(=N/Nc4ccccc4)C3=O)cc2)CC1
inhibition at 3 µM [1]: > 50% | Activity [2]: Active | remaining at 0 min [3]: 100% | half-life [4]: > 4.82 h | Activity [5]: Dose-Dependent Effect | CLH [6]: < 8.6 mL/min/kg | pIC50 [7]: < 4.30 | inhibition [8]: Dose-Dependent Effect | CLint [9]: < 9.6 µL/min/mg | GI50 [10]: 3.31 µM | Activity [11]: 25.51% | pIC50 [12]: < 4.30 | Activity [13]: 0.284% | Activity [14]: 73.4% | Activity [15]: 16.48% | remaining at 1 h, 100 µM [16]: 102% | half-life at 1 h, 100 µM [17]: > 2.42 h | Activity [18]: 4.83% | pIC50 [19]: < 4.30 | remaining at 1 h, 100 µM [20]: 96% | pIC50 [21]: < 4.30 | GI50 [22]: 2.15 µM | Activity [23]: 55% | Activity [24]: Dose-Dependent Effect | Activity [25]: 0.535% | GI50 [26]: 2.5 µM | Activity [27]: Active | Activity [28]: 22.5% | Activity [29]: Tde | Activity [30]: 93.7%
